From paper PMC8286840, “Identifying SARS-CoV-2 antiviral compounds by screening for small molecule inhibitors of Nsp3 papain-like protease” (Biochemical Journal, 2021)
Where a name gives a salt, the structure may show the parent alone. Read-outs that look alike come from different tables or passages of the source. Where a SMILES comes first, the peptide text is derived from it. [ ]: non-standard residue; d: D form. αMeP = C[C@@]1(C(=O)O)CCCN1

How the values were obtained:
[1] = target: T1, SARS-CoV-2 PLpro (nsp3 1564–1878) (Severe acute respiratory syndrome coronavirus 2, UniProt P0DTD1); test: biochemical; design: FRET-quenched peptide (Pro3) cleavage by PLpro, 10 min pre-incubation, slope over 20 min, normalised to no-compound control; conditions: low concentration screen, read-out: % of control remaining
[2] = target: T1, SARS-CoV-2 PLpro (nsp3 1564–1878); test: biochemical; design: FRET-quenched peptide (Pro3) cleavage by PLpro, 10 min pre-incubation, slope over 20 min, normalised to no-compound control; conditions: high concentration screen, read-out: % of control remaining

CC(/C=C/C(=O)NO)=C\[C@@H](C)C(=O)c1ccc(N(C)C)cc1 [Trichostatin A (TSA)]
remaining activity at 1.25 µM ([1]; Well no.=4617): 106%
remaining activity at 3.75 µM ([2]; Well no.=4617): 107%

C[C@@H]1C[C@@H]([C@H](O)CC2CC(=O)NC(=O)C2)C(=O)[C@@H](C)C1 [Cycloheximide]
remaining activity at 1.25 µM ([1]; Well no.=3179): 98.2%
remaining activity at 3.75 µM ([2]; Well no.=3179): 98.5%

C[C@H](N)[C@H](O)c1cccc(O)c1 [Metaraminol (tartrate)]
remaining activity at 1.25 µM ([1]; Well no.=6417): 103%
remaining activity at 3.75 µM ([2]; Well no.=6417): 99.6%

C[C@@]1(C(=O)N[C@@H](CCC(=O)O)C(=O)O)CCCN1C(=O)CN [Trofinetide] (H-Gly-[αMeP]-Glu-OH)
remaining activity at 1.25 µM ([1]; Well no.=8554): 108%
remaining activity at 3.75 µM ([2]; Well no.=8554): 98.6%

CC(=O)/C(C)=N/O [2,3-Butanedione monoxime]
remaining activity at 1.25 µM ([1]; Well no.=22): 103%
remaining activity at 3.75 µM ([2]; Well no.=22): 105%

COc1cc2c(c(OC)c1OC)-c1c(cc3c(c1OC)OCO3)C[C@H](C)[C@](C)(O)C2 [Gomisin A]
remaining activity at 1.25 µM ([1]; Well no.=5817): 103%
remaining activity at 3.75 µM ([2]; Well no.=5817): 104%

Cc1c(CC(=O)O)c2cccnc2n1Cc1ccc(S(C)(=O)=O)cc1C(F)(F)F [Fevipiprant]
remaining activity at 1.25 µM ([1]; Well no.=7767): 106%
remaining activity at 3.75 µM ([2]; Well no.=7767): 106%

C=CCN1CC[C@]23c4c5ccc(O)c4O[C@H]2/C(=N/N=C2\CC[C@@]4(O)[C@H]6Cc7ccc(O)c8c7[C@@]4(CCN6CC=C)[C@H]2O8)CC[C@@]3(O)[C@H]1C5 [Naloxonazine dihydrochloride]
remaining activity at 1.25 µM ([1]; Well no.=894): 105%
remaining activity at 3.75 µM ([2]; Well no.=894): 107%

O=C(Nc1ccc(Cl)cc1CN1C(=O)c2ccccc2C1=O)c1ccccc1O [CPPHA]
remaining activity at 1.25 µM ([1]; Well no.=7243): 101%
remaining activity at 3.75 µM ([2]; Well no.=7243): 97.3%

O=C(O)c1cccnc1C(=O)O [Quinolinic acid]
remaining activity at 1.25 µM ([1]; Well no.=1267): 105%
remaining activity at 1.25 µM ([1]; Well no.=7265): 96.1%
remaining activity at 3.75 µM ([2]; Well no.=1267): 109%
remaining activity at 3.75 µM ([2]; Well no.=7265): 94.7%

c1ccc(C2CC2)c(OCC2=NCCN2)c1 [Cirazoline hydrochloride]
remaining activity at 1.25 µM ([1]; Well no.=537): 106%
remaining activity at 3.75 µM ([2]; Well no.=537): 103%

CCCCCCCCCCCCCCC(F)C(=O)O (stereo not shown) [2-Fluoropalmitic acid]
remaining activity at 1.25 µM ([1]; Well no.=4355): 99.2%
remaining activity at 3.75 µM ([2]; Well no.=4355): 97%

Cc1cccn2c(=O)c(/C=C(\C#N)c3nc4ccccc4s3)c(Oc3ccc(F)cc3)nc12 [CCG-63808]
remaining activity at 1.25 µM ([1]; Well no.=7037): 102%
remaining activity at 3.75 µM ([2]; Well no.=7037): 101%

CNCCC=C1c2ccccc2CCc2ccccc21 [Nortriptyline hydrochloride]
remaining activity at 1.25 µM ([1]; Well no.=1097): 95.3%
remaining activity at 3.75 µM ([2]; Well no.=1097): 96.6%

O=C1CSc2ccccc2N1Cc1cccc(C(F)(F)F)c1 [4-[3-(trifluoromethyl)benzyl]-2H-1,4-benzothiazin-3(4H)-one]
remaining activity at 1.25 µM ([1]; Well no.=5941): 104%
remaining activity at 3.75 µM ([2]; Well no.=5941): 103%

CCCC(=O)NCCc1csc(-c2ccc(Cl)cc2)n1 [Azoramide]
remaining activity at 1.25 µM ([1]; Well no.=8488): 98.4%
remaining activity at 3.75 µM ([2]; Well no.=8488): 99.7%

CC(C)NNC(=O)c1ccncc1 [Iproniazid]
remaining activity at 1.25 µM ([1]; Well no.=2048): 94.9%
remaining activity at 3.75 µM ([2]; Well no.=2048): 96.1%

O=C1CN(/N=C/c2ccc(-c3ccc([N+](=O)[O-])cc3)o2)C(=O)N1 [Dantrolene sodium salt]
remaining activity at 1.25 µM ([1]; Well no.=5847): 104%
remaining activity at 3.75 µM ([2]; Well no.=5847): 101%

O=C(Nc1ncc([N+](=O)[O-])s1)c1ccc([N+](=O)[O-])c(Cl)c1 [SM-7368]
remaining activity at 1.25 µM ([1]; Well no.=5947): 104%
remaining activity at 3.75 µM ([2]; Well no.=5947): 103%

C[C@]12C[C@H](O)[C@H]3[C@@H](CCC4=CC(=O)CC[C@@]43C)[C@@H]1CC[C@@H]2C(=O)CO [Corticosterone]
remaining activity at 1.25 µM ([1]; Well no.=285): 93.6%
remaining activity at 1.25 µM ([1]; Well no.=1928): 99.3%
remaining activity at 1.25 µM ([1]; Well no.=7075): 104%
remaining activity at 3.75 µM ([2]; Well no.=285): 92.1%
remaining activity at 3.75 µM ([2]; Well no.=1928): 96.3%
remaining activity at 3.75 µM ([2]; Well no.=7075): 105%

CCCCCCCC/C=C\CCCCCCCCCCCCCC(=O)O [15(Z)-Tetracosenoic acid]
remaining activity at 1.25 µM ([1]; Well no.=4504): 93.9%
remaining activity at 3.75 µM ([2]; Well no.=4504): 98.5%

CN1C(=O)NC(Cc2c[nH]c3c(Cl)cccc23)C1=O (racemic) [Necrostatin 2 (racemate)]
remaining activity at 1.25 µM ([1]; Well no.=6828): 99.1%
remaining activity at 3.75 µM ([2]; Well no.=6828): 95%

CNCC(O)c1ccc(O)cc1 (stereo not shown) [Synephrine (hydrochloride)]
remaining activity at 1.25 µM ([1]; Well no.=6699): 100%
remaining activity at 3.75 µM ([2]; Well no.=6699): 101%

COc1ccc2c(OC)c3ccoc3nc2c1OC [Skimmianine]
remaining activity at 1.25 µM ([1]; Well no.=3201): 112%
remaining activity at 3.75 µM ([2]; Well no.=3201): 109%

Cc1ncc(CO)c(CO)c1O [Metadoxine]
remaining activity at 1.25 µM ([1]; Well no.=8662): 96.1%
remaining activity at 3.75 µM ([2]; Well no.=8662): 93.3%

CN1CCC(=C2c3ccccc3CC(=O)c3sccc32)CC1 [Ketotifen fumarate]
remaining activity at 1.25 µM ([1]; Well no.=1069): 101%
remaining activity at 3.75 µM ([2]; Well no.=1069): 95.3%

COc1cc2nccc(Oc3ccc(NC(=O)Nc4ccc(F)cc4F)c(F)c3)c2cc1OC [N-(2,4-Difluorophenyl)-N'-[4-[(6,7-dimethoxy-4-quinolinyl)oxy]-2-fluorophenyl]urea]
remaining activity at 1.25 µM ([1]; Well no.=2572): 92%
remaining activity at 3.75 µM ([2]; Well no.=2572): 98.1%

COC1=CC(=O)C[C@@H](C)[C@]12Oc1c(Cl)c(OC)cc(OC)c1C2=O [(+)-Griseofulvin]
remaining activity at 1.25 µM ([1]; Well no.=3354): 88.9%
remaining activity at 3.75 µM ([2]; Well no.=3354): 90.2%

COc1cc(/C=C/C(=O)O)ccc1O [Ferulic acid]
remaining activity at 1.25 µM ([1]; Well no.=3518): 98.9%
remaining activity at 3.75 µM ([2]; Well no.=3518): 100%

C=C(C)[C@@H]1CC=C(C(=O)O)CC1 [Perillic acid]
remaining activity at 1.25 µM ([1]; Well no.=3429): 93.1%
remaining activity at 3.75 µM ([2]; Well no.=3429): 93.2%

CN1CCN(C(=O)/C=C/c2ccc([N+](=O)[O-])o2)CC1 [NSC59984]
remaining activity at 1.25 µM ([1]; Well no.=6644): 105%
remaining activity at 3.75 µM ([2]; Well no.=6644): 106%

NC(=O)OCC(COC(N)=O)c1ccccc1 [Felbamate]
remaining activity at 1.25 µM ([1]; Well no.=609): 101%
remaining activity at 1.25 µM ([1]; Well no.=1543): 102%
remaining activity at 3.75 µM ([2]; Well no.=609): 104%
remaining activity at 3.75 µM ([2]; Well no.=1543): 101%

OC(CCN1CCCCC1)(c1ccccc1)C1CCCCC1 (stereo not shown) [Trihexyphenidyl (hydrochloride)]
remaining activity at 1.25 µM ([1]; Well no.=6375): 105%
remaining activity at 3.75 µM ([2]; Well no.=6375): 105%

Cc1cncc(CN2CCC(=C3c4ccc(Cl)cc4CCc4cccnc43)CC2)c1 [Rupatadine (Fumarate)]
remaining activity at 1.25 µM ([1]; Well no.=7665): 98.2%
remaining activity at 3.75 µM ([2]; Well no.=7665): 102%
